Assay results: patent US20100298141A1, “SUBSTITUTED PYRIDINE N-OXIDE HERBICIDES” (E. I. DU PONT DE NEMOURS AND COMPANY, priority 2007, published 2010)

Columns and labels:
field violet = experiment: Test D preemergence test; assay type: in vivo, Viola arvensis; conditions: scale 0 to 100
Text: Seeds of plant species selected from annual bluegrass (Poa annua), blackgrass (Alopecurus myosuroides), downy bromegrass (Bromus tectorum), field violet (Viola arvensis), green foxtail (Setaria viridis), Italian ryegrass (Lolium multiflorum), littleseed canarygrass (Phalaris minor), spring wheat (Triticum aestivum), wild oat (Avena fatua), […]), winter barley (Hordeum vulgare), and winter wheat (Triticum aestivum) were planted and treated preemergence with test chemicals formulated in a non-phytotoxic solvent mixture which included a surfactant. […] A dash (-) response means no test result.

broadleaf signalgrass = experiment: Test G preemergence test; assay type: in vivo, Brachiaria platyphylla; conditions: scale 0 to 100
fall panicum = experiment: Test G preemergence test; assay type: in vivo, Panicum dichotomiflorum; conditions: scale 0 to 100
large crabgrass = experiment: Test G preemergence test; assay type: in vivo, Digitaria sanguinalis; conditions: scale 0 to 100
millet foxtail = experiment: Test G preemergence test; assay type: in vivo, Setaria italica; conditions: scale 0 to 100
yellow foxtail = experiment: Test G preemergence test; assay type: in vivo, Pennisetum glaucum; conditions: scale 0 to 100
woolly cupgrass = experiment: Test G preemergence test; assay type: in vivo, Eriochloa villosa; conditions: scale 0 to 100
rice = experiment: Test B flooded paddy test; assay type: in vivo, Oryza sativa; conditions: Flood, 250 g ai/ha, 13 to 15 days; scale 0 to 100, 0 no effect, 100 complete control
Text: (§1) At time of treatment, test pots were flooded to 3 cm above the soil surface, treated by application of test compounds directly to the paddy water, and then maintained at that water depth for the duration of the test. Treated plants and controls were maintained in a greenhouse for 13 to 15 days, after which time all species were compared to controls and visually evaluated. […] A dash (-) response means no test result.

umbrella sedge = experiment: Test B flooded paddy test; assay type: in vivo, Cyperus difformis; conditions: Flood, 250 g ai/ha, 13 to 15 days; scale 0 to 100, 0 no effect, 100 complete control
Text: as §1

purple redstem = experiment: Test E flooded paddy test; assay type: in vivo, Ammannia coccinea; conditions: Flood, after 21 days, scale 0 to 100
Text: (§2) Three plastic pots (ca. 16-cm diameter) per rate were partially filled with sterilized Tama silt loam soil comprising a 35:50:15 ratio of sand, silt and clay and 2.6% organic matter. Separate plantings for each of the three pots were as follows. Seeds from the U.S. of ducksalad (Heteranthera limosa), smallflower umbrella sedge (Cyperus difformis) and purple […] coccinea), were planted into one 16-cm pot for each rate. […] Seeds from the U.S. of barnyardgrass (Echinochloa crus-galli), late watergrass (Echinochloa oryzicola), early watergrass (Echinochloa oryzoides) and junglerice (Echinochloa colona) were planted into one 16-cm pot for each rate. Plantings were sequential so that crop and weed species were at the 2.0 to 2.5-leaf stage at time of treatment. Potted plants were grown in a greenhouse with day/night temperature settings of 30/27° C., and supplemental balanced lighting was provided to maintain a 16-hour photoperiod. Test pots were maintained in the greenhouse until test completion. At time of treatment, test pots were flooded to 3 cm above the soil surface, treated by application of test compounds directly to the paddy water, and then maintained at that water depth for the duration of the test. Effects of treatments on rice and weeds were visually evaluated by comparison to untreated controls after 21 days. […] A dash (-) response means no test result.

barnyardgrass = experiment: Test E flooded paddy test; assay type: in vivo, Echinochloa crus-galli; conditions: Flood, after 21 days, scale 0 to 100
Text: as §2

For Cn1nc(C(F)(F)F)c(C(Cl)S(=O)(=O)c2cccc[n+]2[O-])c1Cl (centres unmarked) [Compound 12], the “Plant response rating, Field Violet” value (field violet; 31 g ai/ha) was 0, the “Plant response rating, Field Violet” value (field violet; 62 g ai/ha) was 0 and the “Plant response rating, Field Violet” value (field violet; 125 g ai/ha) was 0. For the same molecule, the “Plant response rating, Field Violet” value (field violet; 250 g ai/ha) was 40, the “Plant response rating, Signalgrass” value (broadleaf signalgrass; 31 g ai/ha) was 0 and the “Plant response rating, Signalgrass” value (broadleaf signalgrass; 62 g ai/ha) was 0. For the same molecule, the “Plant response rating, Signalgrass” value (broadleaf signalgrass; 125 g ai/ha) was 75, the “Plant response rating, Signalgrass” value (broadleaf signalgrass; 250 g ai/ha) was 75 and the “Plant response rating, Fall Panicum” value (fall panicum; 31 g ai/ha) was 90. The “Plant response rating, Fall Panicum” value (fall panicum; 62 g ai/ha) was 100, the “Plant response rating, Fall Panicum” value (fall panicum; 125 g ai/ha) was 100 and the “Plant response rating, Fall Panicum” value (fall panicum; 250 g ai/ha) was 100. For the same molecule, the “Plant response rating, Crabgrass, Large” value (large crabgrass; 31 g ai/ha) was 15, the “Plant response rating, Crabgrass, Large” value (large crabgrass; 62 g ai/ha) was 60 and the “Plant response rating, Crabgrass, Large” value (large crabgrass; 125 g ai/ha) was 95. For the same molecule, the “Plant response rating, Crabgrass, Large” value (large crabgrass; 250 g ai/ha) was 100, the “Plant response rating, Foxtail, Millet” value (millet foxtail; 31 g ai/ha) was 45 and the “Plant response rating, Foxtail, Millet” value (millet foxtail; 62 g ai/ha) was 75. The “Plant response rating, Foxtail, Millet” value (millet foxtail; 125 g ai/ha) was 100, the “Plant response rating, Foxtail, Millet” value (millet foxtail; 250 g ai/ha) was 100 and the “Plant response rating, Foxtail, Yellow” value (yellow foxtail; 31 g ai/ha) was 95. The “Plant response rating, Foxtail, Yellow” value (yellow foxtail; 62 g ai/ha) was 100, the “Plant response rating, Foxtail, Yellow” value (yellow foxtail; 125 g ai/ha) was 100 and the “Plant response rating, Foxtail, Yellow” value (yellow foxtail; 250 g ai/ha) was 100. For the same molecule, the “Plant response rating, Cupgrass, Woolly” value (woolly cupgrass; 31 g ai/ha) was 0, the “Plant response rating, Cupgrass, Woolly” value (woolly cupgrass; 62 g ai/ha) was 0 and the “Plant response rating, Cupgrass, Woolly” value (woolly cupgrass; 125 g ai/ha) was 65. The “Plant response rating, Cupgrass, Woolly” value (woolly cupgrass; 250 g ai/ha) was 70.
In the case of Cn1nc(C(F)(F)F)c(C[S+]([O-])c2ccc(Cl)c[n+]2[O-])c1OC(F)F (centres unmarked) [Compound 6], the “Plant response rating, Rice, Transplanted” value (rice) is reported as 60 and the “Plant response rating, Umbrella Sedge” value (umbrella sedge) is reported as 100.
For Cc1cc[n+]([O-])c(S(=O)(=O)C(C)c2c(C(F)(F)F)nn(C)c2Cl)c1 (racemic) [Compound 14], the “Plant response rating, Field Violet” value (field violet; 31 g ai/ha) was 0, the “Plant response rating, Field Violet” value (field violet; 62 g ai/ha) was 0 and the “Plant response rating, Field Violet” value (field violet; 125 g ai/ha) was 0. For the same molecule, the “Plant response rating, Field Violet” value (field violet; 250 g ai/ha) was 45, the “Plant response rating, Signalgrass” value (broadleaf signalgrass; 31 g ai/ha) was 0 and the “Plant response rating, Signalgrass” value (broadleaf signalgrass; 62 g ai/ha) was 15. For the same molecule, the “Plant response rating, Signalgrass” value (broadleaf signalgrass; 125 g ai/ha) was 20, the “Plant response rating, Signalgrass” value (broadleaf signalgrass; 250 g ai/ha) was 85 and the “Plant response rating, Fall Panicum” value (fall panicum; 31 g ai/ha) was 15. The “Plant response rating, Fall Panicum” value (fall panicum; 62 g ai/ha) was 50, the “Plant response rating, Fall Panicum” value (fall panicum; 125 g ai/ha) was 70 and the “Plant response rating, Fall Panicum” value (fall panicum; 250 g ai/ha) was 100. For the same molecule, the “Plant response rating, Crabgrass, Large” value (large crabgrass; 31 g ai/ha) was 0, the “Plant response rating, Crabgrass, Large” value (large crabgrass; 62 g ai/ha) was 45 and the “Plant response rating, Crabgrass, Large” value (large crabgrass; 125 g ai/ha) was 100. The “Plant response rating, Crabgrass, Large” value (large crabgrass; 250 g ai/ha) was 100, the “Plant response rating, Foxtail, Millet” value (millet foxtail; 31 g ai/ha) was 0 and the “Plant response rating, Foxtail, Millet” value (millet foxtail; 62 g ai/ha) was 20. The “Plant response rating, Foxtail, Millet” value (millet foxtail; 125 g ai/ha) was 70, the “Plant response rating, Foxtail, Millet” value (millet foxtail; 250 g ai/ha) was 100 and the “Plant response rating, Foxtail, Yellow” value (yellow foxtail; 31 g ai/ha) was 0. For the same molecule, the “Plant response rating, Foxtail, Yellow” value (yellow foxtail; 62 g ai/ha) was 0, the “Plant response rating, Foxtail, Yellow” value (yellow foxtail; 125 g ai/ha) was 95 and the “Plant response rating, Foxtail, Yellow” value (yellow foxtail; 250 g ai/ha) was 95. The “Plant response rating, Cupgrass, Woolly” value (woolly cupgrass; 31 g ai/ha) was 0, the “Plant response rating, Cupgrass, Woolly” value (woolly cupgrass; 62 g ai/ha) was 0 and the “Plant response rating, Cupgrass, Woolly” value (woolly cupgrass; 125 g ai/ha) was 70. The “Plant response rating, Cupgrass, Woolly” value (woolly cupgrass; 250 g ai/ha) was 95.
In the case of Cn1nc(C(F)(F)F)c(C[S+]([O-])c2cc(Br)cc[n+]2[O-])c1Cl (racemic) [Compound 35], the “Plant response rating, Redstem” value (purple redstem; 16 g ai/ha) is reported as 0, the “Plant response rating, Redstem” value (purple redstem; 32 g ai/ha) is reported as 45 and the “Plant response rating, Redstem” value (purple redstem; 64 g ai/ha) is reported as 85. For the same molecule, the “Plant response rating, Redstem” value (purple redstem; 125 g ai/ha) was 85, the “Plant response rating, Redstem” value (purple redstem; 250 g ai/ha) was 100 and the “Plant response rating, Barnyardgrass” value (barnyardgrass; 16 g ai/ha) was 0. For the same molecule, the “Plant response rating, Barnyardgrass” value (barnyardgrass; 32 g ai/ha) was 0, the “Plant response rating, Barnyardgrass” value (barnyardgrass; 64 g ai/ha) was 0 and the “Plant response rating, Barnyardgrass” value (barnyardgrass; 125 g ai/ha) was 0. The “Plant response rating, Barnyardgrass” value (barnyardgrass; 250 g ai/ha) was 50.
